Data from article PMC7810383 (Science Advances, 2021).
Peptide text beside a SMILES is read from it. * marks the point of attachment. Cbz = O=C(OCc1ccccc1)*; CH2F = FC*

How the values were obtained:
BIRC2 = type: cell-based, human
[1] = tested on: PARP cleavage in HeLa cells; type: cell-based, human; settings: NAA10 RNAi 72 hours, Z-VAD-FMK 40 μM, anti-PARP immunoblot
XIAP = type: biochemical, human
[2] = tested on: IAPs (BIRC2, BIRC3, XIAP, BIRC6); type: binding, human
hGID/CTLH complex = type: binding, human; settings: peptide on streptavidin beads, HeLa lysate, quantitative MS

Row | Molecule | Ubiquitination of streptavidin-bound peptide by XIAP (anti-ubiquitin immunoblot) (XIAP) | IAP enrichment in peptide pull-down, Nt-free versus Nt-Ac peptide [2] | other results
1 | CN[C@@H](C)C(=O)N[C@H](C(=O)N1CCC[C@H]1c1nc(C(=O)c2ccc(F)cc2)cs1)C1CCCCC1 [LCL161] | – | – | BIRC2 levels (BIRC2): IAP depletion
2 | COC(=O)C[C@H](NC(=O)[C@H](C)NC(=O)[C@@H](NC(=O)OCc1ccccc1)C(C)C)C(=O)CF [Z-VAD, Benzyloxycarbonyl-Val-Ala-Asp-fluoromethyl ketone] (Cbz-Val-Ala-Asp(OMe)-CH2F) | – | – | PARP cleavage induced by NatA RNAi [1]: inhibited
3 | Ac or H-AAAGAAATHLKK-K-(Biotin)-NH2 [PIGS Nt-Ac biotinylated peptide] | not ubiquitinated | – | –
4 | Ac or H-AQFAFESDLHSLLQL-PEG-K(Biotin)-CONH2 [CDC20 Nt-Ac biotinylated peptide] | – | no enrichment | –
5 | H-AAAGAAATHLKK-K-(Biotin)-NH2 [PIGS Nt-free biotinylated peptide] | not ubiquitinated | no IAP enrichment | –
6 | H-AAPEEHDSPTKK-K-(Biotin)-NH2 [DDX47 Nt-free biotinylated peptide] | strongly ubiquitinated | identified IAPs as binding partners | –
7 | H-AAPWRRWPTGKK-K-(Biotin)-NH2 [TMEM223 Nt-free biotinylated peptide] | – | identified IAPs as binding partners | –
8 | H-AISSSSCELPLVAVF-PEG-K(Biotin)-CONH2 [NIT1 Nt-free biotinylated peptide] | – | strongly enriched | –
9 | H-APPSVFAEVPQAQPV-PEG-K(Biotin)-CONH2 [GOT1 Nt-free biotinylated peptide] | – | no IAP enrichment | –
10 | H-AQFAFESDLHSLLQL-PEG-K(Biotin)-CONH2 [CDC20 Nt-free biotinylated peptide] | – | robust interactions | –
11 | H-ASVGECPAPVKK-K-(Biotin)-NH2 [ATP5J2 Nt-free biotinylated peptide] | – | identified IAPs as binding partners | –
12 | H-ATPFQEGLRTFKKK-K(Biotin)-NH2 [CASP9 Nt-free biotinylated peptide, reference compound] | levels that were comparable | preferential binding partners | –
13 | H-AVGKNKRLTKK-K-FITC [RPS3A Nt-free peptide] | – | no IAP enrichment | –
14 | H-AVPAALILREKK-K(Biotin)-NH2 [COMMD10 Nt-free biotinylated peptide] | strongly ubiquitinated | strongly enriched | hGID/CTLH complex enrichment in peptide pull-down (hGID/CTLH complex): also enriched
15 | H-AVPIAQKSEPFKKK-K(Biotin)-NH2 [DIABLO Nt-free biotinylated peptide, reference compound] | levels that were comparable | preferential binding partners | –
16 | H-AVPSPPPASPKK-K(Biotin) [HTRA2 Nt-free biotinylated peptide, reference compound] | – | preferential binding partners | –
17 | H-MAVPAALILREKK-K(Biotin) [Met-COMMD10 Nt-free biotinylated peptide] | – | did not enrich IAPs | –
18 | H-MDDDIAALVVKKK-PEG-(Biotin) [ACTB Nt-free biotinylated peptide] | – | did not enrich IAPs | –
19 | H-MEELIVELRLKKK-PEG-(Biotin) [AFAP1 Nt-free biotinylated peptide] | – | did not enrich IAPs | –
